Results published in US20230181677A1, “POLYPEPTIDE FOR PROMOTING BONE REGENERATION OR BONE FORMATION AND ITS USE” (SEWON BIOTECHNOLOGY INC., priority 2016, published 2023).
Where no end group is shown, it is not given here.

Legend:
[1] = tested on: undifferentiated stem cells; assay: ALP activity of undifferentiated stem cells cultured on titanium disk (osteocyte differentiation); format: cell-based; conditions: peptide 10 μM, 6 hours then osteoblast differentiation medium 48 hours, versus control (C)
From the text: As described above, on the surface of hard structures such as bones or on the surface where cells are difficult to attach to, the peptide of the present invention can promotes the cell adhesion which is a key mechanism for the regeneration. […] Therefore, in this Example, various adhesive peptides developed and disclosed in the present disclosure were used to test their activity for promoting the osteocyte differentiation. For this, each peptide was mixed with undifferentiated stem cells, which was then cultured on a titanium osteoconductive surface, and analyzed the cells for the differentiation into osteocytes. Two×10^4 cells/ml treated with trypsin and mixed with peptide (10 μM) were cultured on a dental titanium disk having a diameter of 10 mm in size for 6 hours, after which the medium was replaced with osteoblast differentiation medium and the cells were cultured for 48 hours. Then the discs were recovered and the cells were lysed and ALP (Alkaline phosphatase) activity was measured.

[2] = tested on: femur muscle of mouse; assay: ectopic ossification analysis, ACS graft in femur muscle, micro-CT; format: in vivo; conditions: BMP-2 2 μg left femur, peptide 600 μg right femur; n=10; eight weeks after operation
Description: Eight weeks after the operation, animals were euthanized and micro-CT analysis was performed to observe calcification (ectopic ossification) in the muscle. All 10 animals were used.

| Substance | ALP (Alkaline phosphatase) activity [1] | ectopic ossification (calcification in the muscle), micro-CT [2] |
| --- | --- | --- |
| (R) 15-QLVVKFRALPC (RRRRRRRRRRRRRRRQLVVKFRALPC) [SEQ ID NO: 41, peptide positively charged at the N-terminus containing 15 arginine residues] | highest ALP activity |  |
| RQLVVKFRALPC [present peptide] |  | no ectopic ossification in all the mice treated |
